Reference: ChEMBL document CHEMBL1145258, “Geometry, topology, and atom-weights assembly descriptors to predicting A1 adenosine receptors agonists” (Bioorg Med Chem Lett, 2005)

Biological target: T1, Adenosine receptor A1 (Rattus norvegicus, UniProt P25099)
T1 sequence (P25099 whole entry): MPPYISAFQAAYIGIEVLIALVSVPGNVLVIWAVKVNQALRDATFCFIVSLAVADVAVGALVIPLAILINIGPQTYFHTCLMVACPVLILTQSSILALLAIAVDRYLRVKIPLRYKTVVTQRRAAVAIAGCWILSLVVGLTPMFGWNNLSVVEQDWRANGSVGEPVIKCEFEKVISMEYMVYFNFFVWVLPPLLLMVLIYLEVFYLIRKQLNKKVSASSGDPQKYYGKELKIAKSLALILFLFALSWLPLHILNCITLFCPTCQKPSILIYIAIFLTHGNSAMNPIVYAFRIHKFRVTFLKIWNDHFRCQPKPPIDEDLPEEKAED
Test: Inhibition of [3H]R-PIA binding to Adenosine A1 receptor from rat brain membrane

SMILES | Ki
CCNC(O)[C@H]1O[C@@H](n2cnc3c(NC(=O)Nc4ccc(S(=O)(=O)Nc5cc(C)on5)cc4)ncnc32)[C@H](O)[C@@H]1O (some centres undefined) | 901 nM
CCNC(=O)[C@H]1OC(n2cnc3c(NC(=O)c4ccc(Cl)cc4Cl)ncnc32)[C@H](O)[C@@H]1O (some centres undefined) | 16 nM
CCNC(=O)[C@H]1OC(n2cnc3c(NC(=O)Nc4ccc(S(=O)(=O)Nc5ccccn5)cc4)ncnc32)[C@H](O)[C@@H]1O (some centres undefined) | 292 nM
CCNC(=O)[C@@H]1OC(n2cnc3c(NC(=O)Nc4ccc(S(=O)(=O)Nc5ncccn5)cc4)ncnc32)[C@@H](O)[C@H]1O (some centres undefined) | 725 nM
